In patent publication US8580749B2, “Peptide-coated cell localization to diseased or damaged tissues and methods related thereto” (Cell Targeting, Inc., priority 2009, dated 2013):
No end group written: not given here. *: point of attachment. Palmitoyl = CCCCCCCCCCCCCCCC(=O)*

What was measured:
heart = experiment: Phage screen of 12 phage in mice with myocardial infarction; format: in vivo; conditions: for preferential localization of phage-displayed peptide in the heart: mice 1, 3 and 7 days after MI, phage circulated 10 minutes; for time point preference of heart localization after infarct: 1, 3 and 7 days post-MI
Protocol: A limited phage screen of 12 phage was performed in a study against mice with myocardial infarction (MI) lasting 1, 3 and 7 days. This panel of phage was selected to include phage with a greater potential for injured tissue, a positive non-specific control and a negative control phage. All publications and references cited in FIG. 24 are incorporated by reference to the extent such incorporation is not contrary to the invention described therein. Nothing herein is to be construed as an admission that the invention is not entitled to antedate such disclosure by virtue of prior invention.
Amplified phage were mixed in a 1:1 ratio and 200 μl injected at 1×10^9 pfu/ml into animals 1, 3 and 7 days after myocardial ischemia was produced. Phage were allowed to circulate for 10 minutes before the animal was perfused through the left ventricle with warmed DMEM/BSA (1%, ˜10 ml) with the right ventricle cut. Tissues (heart, lung, liver, spleen, kidney) were then harvested and stored on ice in 1 ml of DMEM/BSA (1%) before homogenization (Omni International TH homogenizer). Four washes were performed using PBS/BSA (1%) with centrifugation at 2800 RCF (5 min, 4° C.) and resuspension in PBS/BSA (1%). After the final wash, homogenates were weighed then lysed with 100 μl Triton-X-100 (1% in PBS) on ice for 15 minutes; 900 ul of BLT5403 (OD 600) was then added and incubated for 10 minutes (r.t.). This solution was then serially diluted in LB+CarbenicilHn and 240 ul aliquots taken into 1.2 ml BLT5403 and 600 μl plated on 10 cm agar plates with 4 ml top agar. Following overnight incubation, plaques were counted and the pfu/g tissue homogenate was calculated. Plaques were picked into 30 μl of PBS, 1 μl of this solution was transferred into 14 μl PCR mix (GoTaq Green Master Mix 7.5 μl, 1.5 μl 5 μM T7down (AACCCCTCAAGACCCGTTTA (SEQ ID NO: 13)), 1.5 μl 5 μM T7 Superup (AGCGGACCAGATTATCGCTA (SEQ ID NO: 24)), 3.5 μl of DNAse free water). This mix was then subjected to polymerase chain reaction (PCR) (1 cycle of 5 min 94° C.; 35 cycles of 94° C. 30 s, 50° C. 30 s, 72° C. 1 min; 1 cycle 72° C. 1 min; hold at 4° C.). The PCR samples then underwent cleanup and sequencing.

ischemic hindlimb = experiment: Fluorescent peptide homing studies, mouse hindlimb ischemia model; format: in vivo; conditions: for tissue to which the peptide homed: fluorescent peptide studies; for homing of peptide in the mouse ischemic hindlimb: cryosections, FIG. 16
Protocol: Four palmitated peptides were synthesized: SK(biotin)[…] […] Human mesenchymal stem cells (hMSCs) were transiently coated with the four palmitated peptides and fluorescently labeled with Vybrant dye. […] MSCs were grown in DMEM/FBS (10%) supplemented with FGF (5 ng/ml), then trypsinized, washed with DMEM and aliquoted at 1 million cells/vial and resuspended in Tyrodes. […] Cell solutions were then centrifuged (200 RCF, 5 min, r.t.), washed twice with cold Tyrodes, then incubated for 20 min with 20 μg/ml streptavidin-PE (S866 Invitrogen), washed with Tyrodes, fixed with formalin, and then assessed using flow cytometry and epifluorescent microscopy.
For animal experiments, MSCs were first incubated with Vybrant green (CDFA SE; Invitrogen) washed with Tyrodes, then coated with 50 μg/ml PA-peptides for 10 min at 37° C. with shaking. Following coating, cells were washed with Tyrodes twice and resuspended to give 5×10^6 cells/ml. Ischemia was produced in the left hind-limb through ligation and severing of the femoral artery in mice. Three days post ischemia, mice were injected with […] through the subclavian vein and cells allowed to circulate for two hours before sacrifice. Distribution of injected MSCs was monitored by whole-body (“Xenogen”) fluoroscopy. Animals were sacrificed and tissues (heart, lung, liver, spleen, kidney, left calf muscle, left femur muscle, right calf muscle and right femur muscle) were harvested and fluorescence histology was done on tissue cryosections.

heart tissue = experiment: Homing of peptide-coated MSCs in mouse MI reperfusion model; format: in vivo, C57BL6 mice; conditions: for distribution of cells within heart tissue: coated MSCs, 1 hour circulation, day after 30 minute ischemia/reperfusion
Protocol: C57BL6 mice were operated on with a sterile surgical technique. Mice were anaesthetized and intubated. A longitudinal incision was made in the thorax and the heart elevated. The left anterior descending artery was identified, and a ligature suture was placed around the artery and tightened down over a piece of polyethylene tubing placed above the artery, as shown in FIG. 1. After 30 minutes the ligation was released, the chest closed and the mouse was allowed to recover. The following day the mouse was again anaesthetized and intubated, the thoracotomy re-opened and cells administered through the left ventricle (1×10^6 cells). Cells were allowed to circulate for 1 hour before blood was collected into EDTA tubes and the mouse sacrificed via exsanguination. Blood was collected just prior to exsanguination to provide samples for assay of Troponin I levels.
Sections were cryosectioned 8 microns thick, mounted in sequence onto slides and viewed for the fluorescent label of the cells.
Histology sections of cardiac tissues were examined for VYBRANT® (CDFA SE; Invitrogen) green-labeled cells to determine the cells' propensity to target or home to distinct regions of the tissues, especially those associated with the infarcted region. Outcomes were evaluated via quantitative fluorescent microscopy of infarcted and non-infarcted tissues. Area in millimeters squared were calculated from representative cross-sections and numbers of cells were counted on a series of sections taken through the heart.
Sections of heart tissue were also analyzed using fluorescent microscopy. Five slides containing six sections per slide were analyzed. On each section a count of the number of cells was made. The count was then normalized against the area of the centre section on that slide.
An enzyme-linked immunosorbent assay (ELISA) (Life Diagnostics, Inc., Cat. No. 2010-1-HSP) of cardiac troponin I was made on the plasma collected from each mouse according to the manufacturer's method. Briefly, 60 μl of plasma sample was diluted with 180 μl plasma diluent. Standards and samples (100 μl) were added to coated wells containing 100 μl of cardiac troponin I horse radish peroxidase conjugate. These were mixed on an orbital shaker at room temperature for 1 hour. This solution was removed and the wells were washed thoroughly; 100 μl of tetramethylbenzidine reagent was then added to each well. This was incubated on the orbital shaker at room temperature for 20 minutes, then stop solution was added (100 μl) and the absorbance read at 450 nm (Tecan Genios Pro).

ischemic hearts = experiment: Uptake and localization of fluorescently labeled CRPPR in ischemic hearts; format: in vivo, mouse; conditions: 30 minutes, 6 hour and 24 hour ischemia
Protocol: Fluorescently labeled CRPPR (SEQ ID NO: 1) was also studied for uptake and localization in ischemic hearts (30 minutes, 6 hour and 24 hour ischemia). This fluorescently labeled peptide was injected through the subclavian vein and allowed to circulate for two hours before sacrifice. Tissues (heart, lung, liver, spleen and kidney) were harvested, placed in TISSUE-TEK® molds and frozen in OCT cryomounting medium. The tissues were stored on dry ice until being placed at −80° C. and 8-10 μn sections were made.
Sections of heart tissue through different regions of the heart were imaged using a fluorescent microscope and CCD camera. The images were then assessed for total fluorescence using ImageJ (Image Processing and Analysis in Java) (see FIG. 2).

[1] = tested on: human mesenchymal stem cells (MSCs); experiment: MTT toxicity assay of PA-peptides; format: cell-based; conditions: 1 hour incubation
Protocol: Human mesenchymal stem cells (MSCs) were seeded on 96-well plates (5.8×10^3 cells/well; DMEM/FBS 10%) and allowed to grow/adhere for 2 days. Media was removed and PA-peptides were added (0-0.1 mg/ml) to the cells. Toxicity was assessed after 10 minute incubation and 1 hour incubation. Acute effects were assessed immediately following the 10 minute exposure, and longer-term effects were measured the next day after the 10 minute exposure and the 1 hour exposure. Toxicity was assessed using the MTT method. Briefly, 20 μl of MTT (5 mg/ml in PBS, sterile filtered, Corning 0.22 μm Polyethersulfone) was added to each well and the plate was then incubated for 4 hours at 37° C. Media containing MTT was then carefully removed and 100 μl of dimethyl sulfoxide (DMSO) was added to each well. Plates were incubated for a further 30 minutes at 37° C. to solubilize the purple formazan crystals, and absorbance was then measured using a plate reader (570 nm; Tekan Genios Pro).

[2] = tested on: human mesenchymal stem cells (MSCs)
Protocol: MSCs were grown in Dulbecco's Modified Eagle's Medium (DMEM) and fetal bovine serum (FBS) (10%) supplemented with fibroblast growth factor-2 (FGF-2) (5 ng/ml) for 1 week. They were then trypsinized, washed with DMEM, aliquoted at 1 million cells/vial and resuspended in Tyrodes' balanced salt solution. […] was later used throughout the coating procedure. […] Cell solutions were centrifuged (200 RCF, 5 min, r.t.), washed twice with cold Tyrodes solution, then incubated for 20 minutes with 20 μg/ml streptavidin-PE (S866 Invitrogen), washed with Tyrodes solution, fixed with formalin, and then assessed using flow cytometry and epifluorescent microscopy.

| Substance | preferential localization of phage-displayed peptide in the heart (heart) | tissue to which the peptide homed (ischemic hindlimb) | distribution of cells within heart tissue (heart tissue) | further results |
| --- | --- | --- | --- | --- |
| CARSKNKDC (Targeting Sequence 5) | some preferential localization in the heart | – | – | – |
| PA-CRKDKC (Palmitoyl-CRKDKC; cysteine pairing not given here) [palmitated peptide (cell paint)] | – | homed to ischemic muscle tissue | papillary fibers have a higher concentration of cells than the cardiac muscle | – |
| CRPPR (not fully specified) | some preferential localization in the heart | – | – | time point preference of heart localization after infarct (heart): some preference for the earlier time point after infarct; ischemia time at which localization was most pronounced (ischemic hearts): most pronounced after 24 hour ischemia; localization of fluorescent peptide in heart tissue (ischemic hearts; two hours circulation): localize in heart tissue |
| CGLIIQKNEC (Targeting Sequence 3) [Clot1, homing peptide] | – | – | – | homing of peptide in the mouse ischemic hindlimb (ischemic hindlimb): homing |
| PA-KSTRKS (Palmitoyl-KSTRKS) [palmitated peptide (cell paint)] | – | homed to ischemic skeletal muscle tissue | distributed cells with some localization in vessels | concentrations causing a decrease in mitochondrial activity [1]: ≥ 50 µg/mL |
| CREKA (Targeting Sequence 8) | some preferential localization in the heart | – | – | time point preference of heart localization after infarct (heart): three day time point |
| PA-CRPPR (Palmitoyl-CRPPR) [palmitated peptide (cell paint)] | – | homed to cardiac tissue | some localization with vasculature | – |
| CRKDKC (cysteine pairing not given here; also: fluorescent label, position not given here) | some preferential localization | – | – | homing of peptide in the mouse ischemic hindlimb (ischemic hindlimb): homing |
| PA-SK(Biotin)NSCARSKNKDC [PA-BioCAR] | – | homed to ischemic skeletal muscle tissue | distributed throughout the cardiac muscle | correlation between heart damage (cardiac troponin I) and cell number (heart tissue; FIG. 14): more cells localizing in the heart after relatively larger damage; cell labeling by the peptide ([2]; FIGS. 4 and 5): labeled the cells efficiently; cell-associated fluorescence ([2]; PA-BioCAR 0 to 2 mg/ml, 10 minutes, 37° C., streptavidin-PE): increasing cell-associated fluorescence with increasing PA-BioCAR concentration |
